Results from ChEMBL document CHEMBL5365500, “Development and Antibacterial Properties of 4-[4-(Anilinomethyl)-3-phenylpyrazol-1-yl]benzoic Acid Derivatives as Fatty Acid Biosynthesis Inhibitors” (J Med Chem, 2023).
Converted amounts (≈) assume the structure as drawn. The source made the active and inactive calls. No cut-off for these calls is given here.

Assays:
Staphylococcus aureus [1] = test: In vivo antimicrobial activity against Staphylococcus aureus USA300 infected in Caenorhabditis elegans AU37 nematodes assessed as viability of nematodes incubated for 5 days by susceptibility test; assay type: functional; details: USA300, 120 h, time 5 day
[2] = system: Staphylococcus epidermidis; test: Antimicrobial activity against antibiotic-resistant Staphylococcus epidermidis ATCC 700296 assessed as inhibition of visible growth measured after 20 to 24 hrs incubation by CLSI method; assay type: functional; details: time 20-24 hrs
Bacillus subtilis = test: Antimicrobial activity against antibiotic-resistant Bacillus subtilis ATCC 6623 assessed as inhibition of visible growth measured after 20 to 24 hrs incubation by CLSI method; assay type: functional; details: time 20-24 hrs
Staphylococcus aureus [3] = test: Antimicrobial activity against Staphylococcus aureus ATCC 25923 assessed as inhibition of visible growth measured after 20 to 24 hrs incubation by CLSI method; assay type: functional; details: time 20-24 hrs
Enterococcus faecium = test: Antimicrobial activity against antibiotic-resistant Enterococcus faecium ATCC 700221 assessed as inhibition of visible growth measured after 20 to 24 hrs incubation by CLSI method; assay type: functional; details: time 20-24 hrs
Staphylococcus aureus [4] = test: Antimicrobial activity against antibiotic-resistant Staphylococcus aureus ATCC 700699 assessed as inhibition of visible growth measured after 20 to 24 hrs incubation by CLSI method; assay type: functional; details: time 20-24 hrs
Staphylococcus aureus [5] = test: In vivo antimicrobial activity against Staphylococcus aureus UAMS-1 infected in Caenorhabditis elegans AU37 nematodes assessed as viability of nematodes incubated for 5 days by susceptibility test; assay type: functional; details: UAMS-1, 120 h, time 5 day
Enterococcus faecalis [6] = test: Antimicrobial activity against antibiotic-resistant Enterococcus faecalis ATCC 51299 assessed as inhibition of visible growth measured after 20 to 24 hrs incubation by CLSI method; assay type: functional; details: time 20-24 hrs
Staphylococcus aureus [7] = test: Antimicrobial activity against antibiotic-resistant Staphylococcus aureus ATCC 33592 assessed as inhibition of visible growth measured after 20 to 24 hrs incubation by CLSI method; assay type: functional; details: time 20-24 hrs
Staphylococcus aureus [8] = test: Antimicrobial activity against antibiotic-resistant Staphylococcus aureus ATCC BAA-2312 assessed as inhibition of visible growth measured after 20 to 24 hrs incubation by CLSI method; assay type: functional; details: time 20-24 hrs
Staphylococcus aureus [9] = test: Antimicrobial activity against antibiotic-resistant Staphylococcus aureus ATCC 33591 assessed as inhibition of visible growth measured after 20 to 24 hrs incubation by CLSI method; assay type: functional; details: time 20-24 hrs
Enterococcus faecalis [10] = test: Antimicrobial activity against antibiotic-susceptible Enterococcus faecalis ATCC 29212 assessed as inhibition of visible growth measured after 20 to 24 hrs incubation by CLSI method; assay type: functional; details: time 20-24 hrs
Staphylococcus aureus [11] = test: In vivo antimicrobial activity against Staphylococcus aureus Newman infected in Caenorhabditis elegans AU37 nematodes assessed as viability of nematodes incubated for 5 days by susceptibility test; assay type: functional; details: 120 h, time 5 day
HEK293 = test: Cytotoxicity against human HEK293 cells assessed as cell viability measured after 24 hrs by resazurin assay; assay type: toxicity, cell-based
Staphylococcus aureus [12] = test: Antimicrobial activity against clinical isolate Staphylococcus aureus Smu81 assessed as inhibition of growth measured after 20 to 24 hrs incubation by CLSI method; assay type: functional; details: time 20-24 hrs
Staphylococcus aureus [13] = test: Antimicrobial activity against clinical isolate Staphylococcus aureus Smu9 assessed as inhibition of growth measured after 20 to 24 hrs incubation by CLSI method; assay type: functional; details: time 20-24 hrs
Staphylococcus aureus [14] = test: Antimicrobial activity against clinical isolate Staphylococcus aureus Smu21 assessed as inhibition of growth measured after 20 to 24 hrs incubation by CLSI method; assay type: functional; details: time 20-24 hrs
Staphylococcus aureus [15] = test: Antimicrobial activity against clinical isolate Staphylococcus aureus Smu109 assessed as inhibition of growth measured after 20 to 24 hrs incubation by CLSI method; assay type: functional; details: time 20-24 hrs
Staphylococcus aureus [16] = test: Antimicrobial activity against clinical isolate Staphylococcus aureus Smu57 assessed as inhibition of growth measured after 20 to 24 hrs incubation by CLSI method; assay type: functional; details: time 20-24 hrs
Staphylococcus aureus [17] = test: Antimicrobial activity against Staphylococcus aureus UAB159 assessed as inhibition of growth measured after 20 to 24 hrs incubation by CLSI method; assay type: functional; details: time 20-24 hrs
Staphylococcus aureus [18] = test: Antimicrobial activity against methicilline-resistant Staphylococcus aureus ATCC 700699 persisters assessed as bacterial killing at 32 time of MIC concentration measured for every 2 hrs upto 8 hrs by Persisters time course assay; assay type: functional, organism-based
Staphylococcus aureus [19] = test: Antimicrobial activity against Staphylococcus aureus ATCC 25923 assessed as eradication of biofilm measured after 24 hrs incubation by Calgary method; assay type: functional
Cell membrane = test: Induction of membrane permeability in Staphylococcus aureus ATCC 700699 assessed as increase in fluorescence intensity at 4 times of MIC incubated for 15 mins measured for 1 hr by propidium iodide/real time fluorescence based flow cytometry Rvb = 3.5); details: time 75.0 min
Enterococcus faecalis [20] = test: Antimicrobial activity against antibiotic-susceptible Enterococcus faecalis ATCC 29212 assessed as eradication of biofilm measured after 24 hrs incubation by Calgary method; assay type: functional

Compound	MIC (Staphylococcus aureus [1])	MIC [2]	MIC (Bacillus subtilis)	MIC (Staphylococcus aureus [3])	MIC (Enterococcus faecium)	MIC (Staphylococcus aureus [4])	MIC (Staphylococcus aureus [5])	MIC (Enterococcus faecalis [6])	MIC (Staphylococcus aureus [7])	MIC (Staphylococcus aureus [8])	MIC (Staphylococcus aureus [9])	MIC (Enterococcus faecalis [10])	MIC (Staphylococcus aureus [11])	other results
O=C(O)c1ccc(-n2cc(CNc3ccc(Cl)c(Cl)c3)c(-c3ccc(F)cc3)n2)cc1	1 µg/mL (≈ 2.19 µM)	4 µg/mL (≈ 8.77 µM)	1 µg/mL (≈ 2.19 µM)	2 µg/mL (≈ 4.38 µM)	> 32 µg/mL	1 µg/mL (≈ 2.19 µM)	1 µg/mL (≈ 2.19 µM)	> 32 µg/mL	2 µg/mL (≈ 4.38 µM)	1 µg/mL (≈ 2.19 µM)	0.5 µg/mL (≈ 1.1 µM)	> 32 µg/mL	1 µg/mL (≈ 2.19 µM)	–
O=C(O)c1ccc(-n2cc(CNc3ccc(Br)c(Cl)c3)c(-c3ccc(F)cc3)n2)cc1	2 µg/mL (≈ 3.99 µM)	4 µg/mL (≈ 7.99 µM)	0.5 µg/mL (≈ 0.998 µM)	1 µg/mL (≈ 2 µM)	4 µg/mL (≈ 7.99 µM)	2 µg/mL (≈ 3.99 µM)	2 µg/mL (≈ 3.99 µM)	8 µg/mL (≈ 16 µM)	1 µg/mL (≈ 2 µM)	1 µg/mL (≈ 2 µM)	1 µg/mL (≈ 2 µM)	8 µg/mL (≈ 16 µM)	1 µg/mL (≈ 2 µM)	IC50 (HEK293): 20 µg/mL (≈ 39.9 µM)
O=C(O)c1ccc(-n2cc(CNc3cc(Cl)c(F)c(Cl)c3)c(-c3cccc(F)c3)n2)cc1	1 µg/mL (≈ 2.11 µM)	2 µg/mL (≈ 4.22 µM)	1 µg/mL (≈ 2.11 µM)	1 µg/mL (≈ 2.11 µM)	4 µg/mL (≈ 8.43 µM)	2 µg/mL (≈ 4.22 µM)	1 µg/mL (≈ 2.11 µM)	4 µg/mL (≈ 8.43 µM)	1 µg/mL (≈ 2.11 µM)	0.5 µg/mL (≈ 1.05 µM)	0.5 µg/mL (≈ 1.05 µM)	8 µg/mL (≈ 16.9 µM)	1 µg/mL (≈ 2.11 µM)	IC50 (HEK293): 20 µg/mL (≈ 42.2 µM)
O=C(O)c1ccc(-n2cc(CNc3cc(Cl)cc(C(F)(F)F)c3)c(-c3ccc(F)c(F)c3)n2)cc1	1 µg/mL (≈ 1.97 µM)	2 µg/mL (≈ 3.94 µM)	0.5 µg/mL (≈ 0.985 µM)	1 µg/mL (≈ 1.97 µM)	2 µg/mL (≈ 3.94 µM)	1 µg/mL (≈ 1.97 µM)	1 µg/mL (≈ 1.97 µM)	2 µg/mL (≈ 3.94 µM)	1 µg/mL (≈ 1.97 µM)	0.5 µg/mL (≈ 0.985 µM)	0.5 µg/mL (≈ 0.985 µM)	4 µg/mL (≈ 7.88 µM)	0.5 µg/mL (≈ 0.985 µM)	–
O=C(O)c1ccc(-n2cc(CNc3cc(Cl)c(F)c(Cl)c3)c(-c3ccc(C(F)(F)F)cc3)n2)cc1	–	–	–	–	–	–	–	–	–	–	–	–	–	MIC (Staphylococcus aureus [12]): 2 µg/mL (≈ 3.81 µM); MIC (Staphylococcus aureus [13]): 2 µg/mL (≈ 3.81 µM); MIC (Staphylococcus aureus [14]): 2 µg/mL (≈ 3.81 µM); MIC (Staphylococcus aureus [15]): 2 µg/mL (≈ 3.81 µM); MIC (Staphylococcus aureus [16]): 2 µg/mL (≈ 3.81 µM); MIC (Staphylococcus aureus [17]): 2 µg/mL (≈ 3.81 µM)
O=C(O)c1ccc(-n2cc(CNc3cc(C(F)(F)F)cc(C(F)(F)F)c3)c(-c3cccc(F)c3)n2)cc1	–	4 µg/mL (≈ 7.64 µM)	1 µg/mL (≈ 1.91 µM)	2 µg/mL (≈ 3.82 µM)	2 µg/mL (≈ 3.82 µM)	2 µg/mL (≈ 3.82 µM)	–	2 µg/mL (≈ 3.82 µM)	1 µg/mL (≈ 1.91 µM)	1 µg/mL (≈ 1.91 µM)	1 µg/mL (≈ 1.91 µM)	4 µg/mL (≈ 7.64 µM)	–	Activity (Staphylococcus aureus [18]): Active
O=C(O)c1ccc(-n2cc(CNc3cc(C(F)(F)F)cc(C(F)(F)F)c3)c(-c3ccc(F)cc3)n2)cc1	1 µg/mL (≈ 1.91 µM)	4 µg/mL (≈ 7.64 µM)	1 µg/mL (≈ 1.91 µM)	1 µg/mL (≈ 1.91 µM)	2 µg/mL (≈ 3.82 µM)	2 µg/mL (≈ 3.82 µM)	1 µg/mL (≈ 1.91 µM)	4 µg/mL (≈ 7.64 µM)	1 µg/mL (≈ 1.91 µM)	1 µg/mL (≈ 1.91 µM)	0.5 µg/mL (≈ 0.955 µM)	4 µg/mL (≈ 7.64 µM)	0.5 µg/mL (≈ 0.955 µM)	–
CCCCCCCCCC(=O)N[C@@H](Cc1c[nH]c2ccccc12)C(=O)N[C@H](CC(N)=O)C(=O)N[C@@H](CC(=O)O)C(=O)N[C@@H]1C(=O)NCC(=O)N[C@@H](CCCN)C(=O)N[C@@H](CC(=O)O)C(=O)N[C@H](C)C(=O)N[C@@H](CC(=O)O)C(=O)NCC(=O)N[C@H](CO)C(=O)N[C@@H]([C@H](C)CC(=O)O)C(=O)N[C@@H](CC(=O)c2ccccc2N)C(=O)O[C@@H]1C	4 µg/mL (≈ 2.47 µM)	–	–	–	16 µg/mL (≈ 9.87 µM)	8 µg/mL (≈ 4.94 µM)	4 µg/mL (≈ 2.47 µM)	16 µg/mL (≈ 9.87 µM)	–	–	–	16 µg/mL (≈ 9.87 µM)	4 µg/mL (≈ 2.47 µM)	MBEC (Staphylococcus aureus [19]): >32 µg/mL; Activity (Cell membrane): 7.02%; MBEC (Enterococcus faecalis [20]): 16 µg/mL
